From patent publication US10434095B2, “3-(1-oxo-4-((4-((3-oxomorpholino)methyl)benzyl)oxy)isoindolin-2-yl)piperidine-2,6-dione and isotopologues thereof” (Celgene Corporation, priority 2017, dated 2019)

Assays:
IgM production = test: Immunoglobulin assay (ELISA) of plasmablast culture supernatants; format: cell-based, human; conditions: during plasmablast differentiation; FIG. 4
Description: (§1) Fresh B cell cocktail was prepared by adding 50 μg/mL of human transferrin to B cell medium (Iscove's medium with 10% PFBS, 1% P/S, and 5 μg/mL human insulin). The required volume of medium needed for the experiment was filtered through a 0.22 micron filter. Add B cell differentiation cocktail (final concentration): recombinant human Interleukin (IL)-2 (20 U/mL), IL-10 (50 ng/mL), IL-15 (10 ng/mL), CD40 Ligand/TNFSF5/histidine-tagged (50 ng/mL), polyHistidine mouse IgG1 antibody (5 μg/mL), and ODN 2006-Human TLR9 ligand (10 μg/mL) to cells. Five milliliters (1×10^5/mL) of CD19^+ B cells were added to each well of a 6-well flat-bottom plate (final cell count=5×10^5/well). Five microliters of a 1× solution of compound or DMSO was added to each test well (0.1% final concentration of DMSO) and incubated at 37{dot over (◯)}° C. for 4 days.
(§2) Cells were harvested and counted on the cell counter, an aliquot was removed for flow analysis, and the remaining cells were washed with phosphate buffered saline (PBS). Fresh B cell cocktail was prepared by adding 1 μg/ml of human transferrin to B cell medium (Iscove's medium with 10% PFBS, 1% P/S, and 5 μg/mL human insulin). […]
(§3) On Day 4 and Day 7 cells were harvested and counted on the cell counter. […]
(§4) Supernatants (see B Cell Differentiation Assay above) were harvested and analyzed by ELISA for IgG and IgM production (ZeptoMetrix Corp, Buffalo, N.Y.).

IgG production = test: as above; format: cell-based, human; conditions: during plasmablast differentiation; FIG. 5
Description: as §1, §2, §3, §4

BLIMP-1 = test: Gene expression (RT-PCR) in differentiated B cells; format: cell-based, human; conditions: Day 7 differentiated B cells, normalized to 0.1% DMSO; FIG. 3
Description: as §1
(§5) Cells were harvested and counted on the cell counter, an aliquot was removed for flow analysis, and the remaining cells were washed with phosphate buffered saline (PBS). Fresh B cell cocktail was prepared by adding 1 μg/ml of human transferrin to B cell medium (Iscove's medium with 10% PFBS, 1% P/S, and 5 μg/mL human insulin). The required volume of medium needed for the experiment was filtered through a 0.22 micron filter. B cell differentiation cocktail (final concentration) consisting of: recombinant human IL-2 (20 U/mL), IL-10 (50 ng/mL), IL-15 (10 ng/mL), and IL-6 (50 ng/mL) was added to cells. Fresh B cell cocktail was added to cells. Cells were transferred back to the original wells and the volume was adjusted to 5 mL. Five microliters of a 1× solution of compound or DMSO was added to each test well (0.1% final DMSO) and incubated at 37{dot over (◯)}° C. for 3 days.
(§6) On Day 4 and Day 7 cells were harvested and counted on the cell counter. A portion of the cells were then removed for flow analysis and the remaining cells were lysed with RLT buffer and stored at −80° C. for RNA extraction and gene expression. Supernatants were divided into aliquots and frozen at −20° C. for immunoglobulin assays.
(§7) Differentiated B cells (see B Cell Differentiation Assay above) were harvested for total ribonucleic acid (RNA) preparation with a Qiacube RNA extraction instrument (Qiagen, Valencia, Calif.) using QIAGEN RNeasy mini spin-column kits (Catalog #74104). Purified RNA was reverse transcribed into cDNA with thermal cycler (MJ Research, Inc., St. Bruno, Quebec, Canada) using a reverse-transcriptase kit (Applied Biosystems). The gene expression assay was carried out using 7500 real time polymerase chain reaction (RT-PCR) system (Applied Biosystems) in triplicate. A glyceraldehyde 3-phosphate dehydrogenase gene expression assay control was run for each sample and used as a normalization control. For each gene, values for samples within each experiment were normalized to the corresponding 0.1% DMSO treatment value for that particular time point.

IgJ = test: Gene expression (RT-PCR) in differentiated B cells; format: cell-based, human; conditions: Day 7 differentiated B cells, normalized to 0.1% DMSO; FIG. 3
Description: as §1, §5, §6, §7

IRF-4 = test: Gene expression (RT-PCR) in differentiated B cells; format: cell-based, human; conditions: Day 7 differentiated B cells, normalized to 0.1% DMSO; FIG. 3
Description: as §1, §5, §6, §7

BCL-6 = test: Gene expression (RT-PCR) in differentiated B cells; format: cell-based, human; conditions: Day 7 differentiated B cells, normalized to 0.1% DMSO; FIG. 3
Description: as §1, §5, §6, §7

OBF-1 = test: Gene expression (RT-PCR) in differentiated B cells; format: cell-based, human; conditions: Day 7 differentiated B cells, normalized to 0.1% DMSO; FIG. 3
Description: as §1, §5, §6, §7

XBP-1 = test: Gene expression (RT-PCR) in differentiated B cells; format: cell-based, human; conditions: Day 7 differentiated B cells, normalized to 0.1% DMSO; FIG. 3
Description: as §1, §5, §6, §7

primary human B cells = test: Cell viability analysis (Trypan blue live cell count) in B cell differentiation culture; format: cell-based; conditions: cell counts on Day 4 and Day 7 of the 7 day culture; FIG. 2
Description: as §1
(§8) Cells were harvested and counted on the cell counter, an aliquot was removed for flow analysis, and the remaining cells were washed with phosphate buffered saline (PBS). […]
as §3
To determine live cell count, B cells (see B Cell Differentiation Assay above) were stained with 0.4% Trypan blue (Gibco cat #15250) and live cells counted using the Countess automated cell counter (Invitrogen) in duplicate samples.

[1] = test system: primary human CD19+ B cells differentiating toward the plasma cell lineage; test: B cell differentiation assay, cell phenotyping by flow cytometry (CD20/CD38); format: cell-based; conditions: in vitro primary human B cell differentiation culture; FIG. 1
Description: The effect of Compound I-S on the expression of transcription factors controlling plasma cell differentiation and immunoglobulin production using an in-vitro human B-cell differentiation culture system was invesitaged according to the procedures below:
Twenty-five milliliters human buffy coat were placed into each of two 50-mL conical tubes and 25 mL sterile Hank's buffered saline solution (HBSS) were added to each conical tube. The tubes were gently mixed by inverting. Fifteen milliliters of room temperature Ficoll-Paque Plus (GE Healthcare; Cat#17-1440-02) were placed into each of four 50-mL conical tubes. Then 25 mL of the buffy coat/HBSS mixture were layered gently and slowly on top of the Ficoll. […] The cell pellet was resuspended in 20 mL of B cell medium (Iscove's modified Dulbecco's medium+10% premium fetal bovine serum [PFBS], 1% penicillin/streptomycin [P/S], and 5 μg/mL human insulin), pipetted through a 30 micron filter, and an aliquot was counted using the cell counter.
Aliquots of purified PBMCs (2×10^8 cells) were placed in tubes, centrifuged at 1200 rpm for 5 minutes, and then supernatants were discarded. […] The enriched CD19^+ cells were resuspended in 5 mL of B cell medium and counted on the cell counter. […]
as §8

O=C1CC[C@H](N2Cc3c(OCc4ccc(CN5CCOCC5=O)cc4)cccc3C2=O)C(=O)N1 [Compound I-S, (S)-3-(1-oxo-4-((4-((3-oxomorpholino)methyl)benzyl)oxy)isoindolin-2-yl)piperidine-2,6-dione]
IgM production (IgM production): significantly inhibited | IgG production (IgG production): significantly inhibited | expression of plasma cell lineage transcription factor BLIMP-1 (BLIMP-1): dose-dependently and significantly inhibited | expression of plasma cell lineage transcription factor IgJ (IgJ): dose-dependently and significantly inhibited | expression of plasma cell lineage transcription factor IRF-4 (IRF-4): dose-dependently and significantly inhibited | expression of germinal center lineage B cell transcription factor BCL-6 (BCL-6): did not decrease | expression of plasma cell lineage transcription factor OBF-1 (OBF-1): dose-dependently and significantly inhibited | expression of plasma cell lineage transcription factor XBP-1 (XBP-1): dose-dependently and significantly inhibited | B cell viability (live cell count) (primary human B cells): reduce B cell viability | percentage of CD20+CD38- activated B cells (ABC) [1]: increased | percentage of CD20-CD38+ plasmablasts (PB) [1]: dose-dependently reduced
